Source: patent publication US6852761B2, “Polycyclic aryl and heteroaryl substituted benzenes useful for selective inhibition of the coagulation cascade” (Pharmacia Corporation, priority 2000, dated 2005)

Assays:
human factor Xa = molecular target: T1, human factor Xa (Homo sapiens, UniProt P00742); experiment: Xa Assay; assay type: biochemical
T1 construct: leads from XII to XIIa to XIa to IXa and to the conversion of X to Xa; purchased Enzyme Research Laboratories, South Bend Ind
Method: 0.3 nM human factor Xa and 0.15 mM N-α-Benzyloxycarbonyl-D-arginyl-L-glycyl-L-arginine-p-nitroaniline-dihydrochloride (S-2765) are added to a 96-well assay plate containing either inhibitor or buffer (50 mM Tris-HCl, pH 8.0, 100 mM NaCl, 0.1% BSA). The reaction, in a final volume of 100 ul is measured immediately at 405 nm to determine background absorbance. The plate is incubated at room temperature for 60 min, at which time the rate of hydrolysis of the substrate is measured by monitoring the reaction at 405 nm for the release of p-nitroaniline. Percent inhibition of Xa activity is calculated from OD405 nm value from the experimental and control sample.
Recombinant soluble TF, consisting of amino acids 1-219 of the mature protein sequence was expressed in E. coli and purified using a Mono Q Sepharose FPLC. Recombinant human VIIa was purchased from American Diagnostica, Greenwich Conn. and chromogenic substrate N-Methylsulfonyl-D-phe-gly-arg-p-nitroaniline was prepared by American Peptide Company, Inc., Sunnyvale, Calif. Factor Xa was obtained from Enzyme Research Laboratories, South Bend Ind., thrombin from Calbiochem, La Jolla, Calif., and trypsin and L-BAPNA from Sigma, St. Louis Mo. The chromogenic substrates S-2765 and S-2238 were purchased from Chromogenix, Sweden.

[1] = molecular target: T2, recombinant soluble tissue factor and recombinant human factor VIIa (TF-VIIA) (Homo sapiens, UniProt P08709); experiment: TF-VIIa Assay; assay type: biochemical
T2 construct: conversion of coagulation factor VII to VIIa by Xa; purchased American Diagnostica, Greenwich Conn; (factor VIIa); host or cells: soluble TF made in house in E. coli
T2 sequence (P08709 213-466 limits assumed): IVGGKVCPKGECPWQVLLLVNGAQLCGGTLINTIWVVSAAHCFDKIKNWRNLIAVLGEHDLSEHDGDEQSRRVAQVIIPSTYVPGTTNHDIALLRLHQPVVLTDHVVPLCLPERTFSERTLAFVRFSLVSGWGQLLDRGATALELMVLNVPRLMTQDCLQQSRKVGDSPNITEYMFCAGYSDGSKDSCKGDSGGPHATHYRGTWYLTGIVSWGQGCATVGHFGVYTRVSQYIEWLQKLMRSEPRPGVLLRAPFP
T2 sequence (P08709 61-212 limits assumed): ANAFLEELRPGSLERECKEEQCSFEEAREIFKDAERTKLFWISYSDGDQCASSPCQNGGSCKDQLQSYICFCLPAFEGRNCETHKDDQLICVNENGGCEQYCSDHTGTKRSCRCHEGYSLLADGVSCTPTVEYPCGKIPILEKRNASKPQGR
T2 sequence (P13726 33-251 partner limits assumed): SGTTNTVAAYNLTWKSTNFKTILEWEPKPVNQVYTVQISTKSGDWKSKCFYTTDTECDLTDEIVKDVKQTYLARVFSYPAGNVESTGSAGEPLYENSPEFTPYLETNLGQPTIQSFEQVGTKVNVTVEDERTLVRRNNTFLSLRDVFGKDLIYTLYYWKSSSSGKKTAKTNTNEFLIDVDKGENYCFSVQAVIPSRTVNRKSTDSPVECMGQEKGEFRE
Method: In this assay 100 nM recombinant soluble tissue factor and 2 nM recombinant human factor VIIa are added to a 96-well assay plate containing 0.4 mM of the substrate, N-Methylsulfonyl-D-phe-gly-arg-p-nitroaniline and either inhibitor or buffer (5 mM CaCl2,50 mM Tris-HCl, pH 8.0, 100 mM NaCl, 0.1% BSA). The reaction, in a final volume of 100 ul is measured immediately at 405 nm to determine background absorbance. The plate is incubated at room temperature for 60 min, at which time the rate of hydrolysis of the substrate is measured by monitoring the reaction at 405 nm for the release of p-nitroaniline. Percent inhibition of TF-VIIa activity is calculated from OD405nm value from the experimental and control sample.

T1 sequence (P00742 235-488 limits assumed): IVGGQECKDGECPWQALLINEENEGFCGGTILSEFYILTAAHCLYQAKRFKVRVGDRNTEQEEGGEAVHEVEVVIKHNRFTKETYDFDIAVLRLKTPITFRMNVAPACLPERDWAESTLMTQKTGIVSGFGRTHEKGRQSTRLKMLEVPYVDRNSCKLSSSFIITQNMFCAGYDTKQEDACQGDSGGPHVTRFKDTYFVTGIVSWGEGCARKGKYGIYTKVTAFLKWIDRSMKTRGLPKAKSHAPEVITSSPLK
T1 sequence (P00742 41-179 limits assumed): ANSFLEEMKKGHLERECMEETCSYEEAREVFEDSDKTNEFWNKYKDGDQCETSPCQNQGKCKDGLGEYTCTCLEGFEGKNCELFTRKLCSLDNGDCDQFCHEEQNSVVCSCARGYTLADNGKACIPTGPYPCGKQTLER

Compound | IC50 (human factor Xa) | IC50 [1]
N=C(N)c1ccc(CNC(=O)Cc2c(-c3ccccc3)ccc(NCCc3ccccc3)c2O)cc1 [Example 19] | > 30 µM | –
N=C(N)c1ccc(CNC(=O)Cc2c(-c3ccccc3)ccc(NCCc3ccccc3)c2F)cc1 [Example 17] | > 30 µM | –
N=C(N)NCCCCCNC(=O)Cc1c(F)ccc(NS(=O)(=O)Cc2ccccc2)c1F [Example 15] | > 30 µM | > 30 µM
O=C(NCc1ccncc1)c1cc(NS(=O)(=O)Cc2ccccc2)ccc1Sc1ccccc1 [Example 3] | > 30 µM | > 30 µM
N=C(N)c1cccc(CNC(=O)Cc2c(F)ccc(NS(=O)(=O)Cc3ccccc3)c2F)c1 [Example 13] | – | > 30 µM
O=C(Cc1c(F)ccc(NS(=O)(=O)Cc2ccccc2)c1F)NCc1ccncc1 [Example 11] | – | > 30 µM
CN(C)c1ccc(CNC(=O)Cc2c(F)ccc(NS(=O)(=O)Cc3ccccc3)c2F)cc1 [Example 10] | – | > 30 µM
O=C(Cc1c(F)ccc(NS(=O)(=O)Cc2ccccc2)c1F)NCCCn1ccnc1 [Example 12] | > 30 µM | > 30 µM
COc1c(NC(C)C)ccc(-c2ccccc2)c1CC(=O)NCc1ccc(C(=N)N)cc1 [Example 22] | > 30 µM | –
O=C(Cc1c(F)ccc(NS(=O)(=O)Cc2ccccc2)c1F)NCC1CCNCC1 [Example 9] | > 30 µM | > 30 µM
O=C(NCC1CCNCC1)c1cc(NS(=O)(=O)Cc2ccccc2)ccc1Sc1ccccc1 [Example 1] | – | > 30 µM
N=C(N)c1ccc(CNC(=O)c2cc(NS(=O)(=O)Cc3ccccc3)ccc2Sc2ccccc2)cc1 [Example 4] | > 30 µM | > 30 µM
N=C(N)c1ccc(CNC(=O)Cc2c(F)ccc(NS(=O)(=O)Cc3ccccc3)c2F)cc1 [Example 14] | > 30 µM | > 30 µM
CN(C)c1ccc(CNC(=O)c2cc(NS(=O)(=O)Cc3ccccc3)ccc2Sc2ccccc2)cc1 [Example 2] | > 30 µM | > 30 µM
